From patent US5980913A, “Peptides having immunomodulatory activity” (Biochem Pharma, Inc., priority 1994, dated 1999) come the findings set out here.

Where a SMILES comes first, the peptide text is derived from it.

The subject of this assay is NK cells. Nature of the assay: Functional in vivo/ex vivo NK cell assay, spleen cells, effector:target ratio 100:1. The arrangement: species or system mice. The conditions noted are these: for NK cell assay, % response of CTL: CTL = control. The procedure: C57BL.backslash.6 mice are treated with 0, 50, 100, 200, and 300 mg/kg of drug (in saline) for 4 consecutive days. Blood is taken by cardiac puncture on day 5, and the lymphocytes are isolated from spleen in the following manner:
The spleen is aseptically removed and mashed by pressing against a steel strainer with a rubber plunger. The cell suspension is separated from the clumps by letting them settle at the bottom of the tube. The cell suspension is then separated on a Lymphocyte M layer and the interface is recovered and resuspended in media.
Important in immunosurveillance, NK cells are capable of lysing tumors, virus-infected or embryo-derived cells in vitro spontaneously without prior sensitization. Immunomodulators are evaluated using murine splenocytes and human peripheral blood mononuclear leukocytes.
Spleen cells were used to test for NK activity at a effector:target ratio of 100:1.

As to `NCCCC[C@H](N)C(=O)N[C@@H](CC(N)=O)C(=O)N1CCC[C@H]1C(=O)N[C@@H](Cc1ccc(O)cc1)C(=O)O` [PEPTIDE #1, H-Lys-Asn-Pro-Tyr-OH] (H-KNPY-OH), the “NK cell assay, % response of IL-2” value worked out at 48.34% (50 mg/kg), 69.48% (100 mg/kg), 53.13% (200 mg/kg) and 58.49% (300 mg/kg). Further, the “NK cell assay, Average” value is, setting by setting: (50 mg/kg) 2.52; (100 mg/kg) 3.63; (200 mg/kg) 2.77; (300 mg/kg) 3.05. Further, the “NK cell assay, % response of CTL” value amounted to 112.48% (50 mg/kg), 161.66% (100 mg/kg), 123.63% (200 mg/kg) and 136.11% (300 mg/kg).
